What follows are compounds tested against CCR2 (Homo sapiens (Human), UniProt P41597) (assay: Calcium activity on FLIPR Tetra in HEK-Gqi5 cells stably expressing CCR2). Conditions: FLIPR Tetra calcium assay.
Format: cell-based
Method: HEK-Gqi5 cells stably expressing CCR2 were cultured in (DMEM high glucose, 10% FBS, 1% PSA, 400 μg/ml geneticin and 50 μg/ml hygromycin. Appropriate positive control chemokines (MCP-1, MIP1A or RANTES) was used as the positive control agonist for screening compound-induced calcium activity assayed on the FLIPR^Tetra. The drug plates were prepared in 384-well microplates using the EP3 and the MultiPROBE robotic liquid handling systems. Compounds were synthesized and tested for CCR2 activity.

Chain of CCR2 (P41597 whole entry, species assumed): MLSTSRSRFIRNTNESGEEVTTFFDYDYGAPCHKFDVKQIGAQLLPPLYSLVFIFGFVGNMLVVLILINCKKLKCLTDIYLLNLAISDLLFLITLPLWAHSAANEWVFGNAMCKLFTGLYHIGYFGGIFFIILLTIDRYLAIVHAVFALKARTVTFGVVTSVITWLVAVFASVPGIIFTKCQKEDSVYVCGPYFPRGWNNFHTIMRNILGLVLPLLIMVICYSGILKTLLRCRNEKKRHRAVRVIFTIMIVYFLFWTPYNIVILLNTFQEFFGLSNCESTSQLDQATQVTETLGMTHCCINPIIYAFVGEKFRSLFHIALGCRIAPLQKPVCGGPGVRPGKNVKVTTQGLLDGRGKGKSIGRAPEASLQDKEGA

Structure (SMILES) | CCR2 % Antagonism | IC50
O=S(=O)(Nc1cc(Cl)ccc1NS(=O)(=O)c1c(F)cccc1F)c1cc2ccccc2o1 [N-(5-chloro-2-{[(2,6-difluorophenyl)sulfonyl]amino}phenyl)-1-benzofuran-2-sulfonamide] | 99% | 0.153 µM
O=S(=O)(Nc1cc(Cl)c(Cl)cc1NS(=O)(=O)c1ccc(Cl)s1)c1cccs1 [5-chloro-N-{4,5-dichloro-2-[(2-thienylsulfonyl)amino]phenyl}thiophene-2-sulfonamide] | 89% | 0.263 µM
Cc1cc(S(=O)(=O)Nc2cc(Cl)c(Cl)cc2NS(=O)(=O)c2cccs2)ccc1Br [N-(2-{[(4-bromo-3-methylphenyl)sulfonyl]amino}-4,5-dichlorophenyl)thiophene-2-sulfonamide] | 91% | 0.471 µM
O=S(=O)(Nc1cc(Cl)c(Cl)cc1NS(=O)(=O)c1cccs1)c1ccc(F)c(C(F)(F)F)c1 [N-[4,5-dichloro-2-({[4-fluoro-3-(trifluoromethyl)phenyl]sulfonyl}amino)phenyl]thiophene-2-sulfonamide] | 89% | 0.432 µM
Cn1ccc(S(=O)(=O)Nc2ccc(Cl)cc2NS(=O)(=O)c2cc3ccccc3o2)n1 [N-{2-[(1-benzofuran-2-ylsulfonyl)amino]-4-chlorophenyl}-1-methyl-1H-pyrazole-3-sulfonamide] | 96% | 0.185 µM
O=S(=O)(Nc1cc(Cl)c(Cl)cc1NS(=O)(=O)c1ccc(F)cc1F)c1cccs1 [N-(4,5-dichloro-2-{[(2,4-difluorophenyl)sulfonyl]amino}phenyl)thiophene-2-sulfonamide] | 89% | 0.451 µM
O=S(=O)(Nc1cc(Cl)c(Cl)cc1NS(=O)(=O)c1cccc(Cl)c1F)c1cccs1 [N-(4,5-dichloro-2-{[(3-chloro-2-fluorophenyl)sulfonyl]amino}phenyl)thiophene-2-sulfonamide] | 96% | 0.217 µM
O=S(=O)(Nc1cc(Cl)c(Cl)cc1NS(=O)(=O)c1cc2ccccc2s1)c1cccs1 [N-{4,5-dichloro-2-[(2-thienylsulfonyl)amino]phenyl}-1-benzothiophene-2-sulfonamide] | 94% | 0.494 µM
O=S(=O)(Nc1cccnc1NS(=O)(=O)c1cccs1)c1ccc(Cl)c(C(F)(F)F)c1 [N-[3-({[4-chloro-3-(trifluoromethyl)phenyl]sulfonyl}amino)pyridin-2-yl]thiophene-2-sulfonamide] | 85% | 0.349 µM
O=S(=O)(Nc1cc(Cl)c(Cl)cc1NS(=O)(=O)c1cccs1)c1ccc(F)cc1 [N-(4,5-dichloro-2-{[(4-fluorophenyl)sulfonyl]amino}phenyl)thiophene-2-sulfonamide] | 91% | 0.441 µM
COC(=O)c1sccc1S(=O)(=O)Nc1ccc(Cl)cc1NS(=O)(=O)c1cc2ccccc2o1 [methyl 3-[({2-[(1-benzofuran-2-ylsulfonyl)amino]-4-chlorophenyl}amino)sulfonyl]thiophene-2-carboxylate] | 96% | 0.246 µM
O=S(=O)(Nc1cc(Cl)c(Cl)cc1NS(=O)(=O)c1cc(Cl)cc(Cl)c1O)c1cccs1 [N-(4,5-dichloro-2-{[(3,5-dichloro-2-hydroxyphenyl)sulfonyl]amino}phenyl)thiophene-2-sulfonamide] | 82% | 0.482 µM
Cc1nn(C)c(Cl)c1S(=O)(=O)Nc1ccc(Cl)cc1NS(=O)(=O)c1cc2ccccc2o1 [N-{2-[(1-benzofuran-2-ylsulfonyl)amino]-4-chlorophenyl}-5-chloro-1,3-dimethyl-1H-pyrazole-4-sulfonamide] | 80% | 0.294 µM
O=S(=O)(Nc1cc(Cl)c(Cl)cc1NS(=O)(=O)c1cccs1)c1ccc(Cl)c(Cl)c1 [N-(4,5-dichloro-2-{[(3,4-dichlorophenyl)sulfonyl]amino}phenyl)thiophene-2-sulfonamide] | 79% | 0.394 µM
O=S(=O)(Nc1cc(Cl)ccc1NS(=O)(=O)c1cccs1)c1cc2ccccc2o1 [N-{5-chloro-2-[(2-thienylsulfonyl)amino]phenyl}-1-benzofuran-2-sulfonamide] | 86% | 0.02 µM
Cc1ccc(S(=O)(=O)Nc2cc(Cl)c(Cl)cc2NS(=O)(=O)c2cccs2)o1 [N-{4,5-dichloro-2-[(2-thienylsulfonyl)amino]phenyl}-5-methylfuran-2-sulfonamide] | 95% | 0.311 µM
O=S(=O)(Nc1cc(Cl)c(Cl)cc1NS(=O)(=O)c1ccccc1F)c1cccs1 [N-(4,5-dichloro-2-{[(2-fluorophenyl)sulfonyl]amino}phenyl)thiophene-2-sulfonamide] | 67% | 0.402 µM
Cc1n[nH]c(C)c1S(=O)(=O)Nc1ccc(Cl)cc1NS(=O)(=O)c1cc2ccccc2o1 [N-{2-[(1-benzofuran-2-ylsulfonyl)amino]-4-chlorophenyl}-3,5-dimethyl-1H-pyrazole-4-sulfonamide] | 108% | 0.183 µM
O=S(=O)(Nc1cc(Cl)c(Cl)cc1NS(=O)(=O)c1ccc(Cl)cc1F)c1cccs1 [N-(4,5-dichloro-2-{[(4-chloro-2-fluorophenyl)sulfonyl]amino}phenyl)thiophene-2-sulfonamide] | 94% | 0.361 µM
Cc1ccc(S(=O)(=O)Nc2ccc(Cl)cc2NS(=O)(=O)c2cc3ccccc3o2)s1 [N-(5-chloro-2-{[(5-methyl-2-thienyl)sulfonyl]amino}phenyl)-1-benzofuran-2-sulfonamide] | 96% | 0.339 µM
Cn1cnc(S(=O)(=O)Nc2ccc(Cl)cc2NS(=O)(=O)c2cc3ccccc3o2)c1 [N-{2-[(1-benzofuran-2-ylsulfonyl)amino]-4-chlorophenyl}-1-methyl-1H-imidazole-4-sulfonamide] | 110% | 0.423 µM
O=S(=O)(Nc1cc(Cl)c(Cl)cc1NS(=O)(=O)c1cccs1)c1cc2ccccc2o1 [N-{4,5-dichloro-2-[(2-thienylsulfonyl)amino]phenyl}-1-benzofuran-2-sulfonamide] | 100% | 0.096 µM
O=S(=O)(Nc1ccc(Cl)cc1NS(=O)(=O)c1cccs1)c1cc2ccccc2o1 [N-{4-chloro-2-[(2-thienylsulfonyl)amino]phenyl}-1-benzofuran-2-sulfonamide] | 90% | 0.145 µM
O=S(=O)(Nc1cc(Cl)ccc1NS(=O)(=O)c1c(Cl)cccc1Cl)c1cc2ccccc2o1 [N-(5-chloro-2-{[(2,6-dichlorophenyl)sulfonyl]amino}phenyl)-1-benzofuran-2-sulfonamide] | 89% | 0.478 µM
O=S(=O)(Nc1cc(Cl)c(Cl)cc1NS(=O)(=O)c1cccs1)c1cccc(Cl)c1 [N-(4,5-dichloro-2-{[(3-chlorophenyl)sulfonyl]amino}phenyl)thiophene-2-sulfonamide] | 90% | 0.391 µM
O=S(=O)(Nc1cc(Cl)c(Cl)cc1NS(=O)(=O)c1cccs1)c1ccc(Cl)nc1 [6-chloro-N-{4,5-dichloro-2-[(2-thienylsulfonyl)amino]phenyl}pyridine-3-sulfonamide] | 100% | 0.281 µM
O=S(=O)(Nc1cc(Cl)c(Cl)cc1NS(=O)(=O)c1cccs1)c1cccc(C(F)(F)F)c1 [N-[4,5-dichloro-2-({[3-(trifluoromethyl)phenyl]sulfonyl}amino)phenyl]thiophene-2-sulfonamide] | 88% | 0.306 µM

Reference: patent publication US9603834B2, “1,2- bis-sulfonamide derivatives as chemokine receptor modulators” (Allergan, Inc., priority 2010, dated 2017)
